Target: hERG (Homo sapiens, UniProt Q12809)
Assay: Two-electrode voltage clamp of hERG in Xenopus oocytes
Format: cell-based
Details: 10 µM CP1
Description: Since CP1 has a similar effect to PIP2 in mediating VSD-pore coupling in KCNQ channels, we tested if CP1 has effects on other ion channels that are also sensitive to PIP2 or are voltage activated and share general structural features of the VSD and the pore with KCNQ. […] On the other hand, NaV1.5 and KV4.2 are voltage-gated ion channels.
Fig. 6 Effects of CP1 on other ion channels expressed in Xenopus oocytes. a Currents of Kir1.1, CaV1.2, NaV1.5, hERG, and KV4.2 before and after application of 10 µM CP1, respectively. The voltages for holding, test, and returning pulses were Kir1.1, 0 mV, −100 to +60 mV, 0; CaV1.2, −100 mV, −100 to +60, −100 mV; NaV1.5, −100, −120 to +40 mV, −120 mV; […]; KV4.2, −80 mV, −100 mV to +80 mV, −40 mV; HCN4, −30 mV, −30 to −140 mV, −120 mV. b Current–voltage relations of Kir1.1 channel in the absence or presence of 10 µM CP1 (n = 7). c–g G–V relations of indicated channels with and without 10 µM CP1. The ΔV1/2 of G–V relations (mV) are CaV1.2, 3.38 ± 0.71 mV (c); NaV1.5, −2.26 ± 0.95 mV (d); hERG, 6.85 ± 1.81 mV (e); KV 4.2, −2.26 ± 2.88 mV (f); HCN4, 17.13 ± 1.59 mV (g).
Complementary DNA (cDNA) encoding human KCNQ1 (UniProtKB/Swiss‐Prot under accession no. P51787), KCNQ2 (O43526), KCNQ3 (O43525), KCNE1 (P15382), Kir1.1 (P48048), hERG (Q12809), KV4.2 (Q63881), NaV1.5 (Q14524), NaV β1 (Q07699), CaV1.2 (Q13936), CaV β1a (Q02641), CaV α2/δ1 (P54289), and HCN4 (Q9Y3Q4) were subcloned into oocyte expression vectors, respectively. Site-directed mutations of the KCNQ1 channel were all produced by overlap extension polymerase chain reaction (PCR) with high-fidelity Pfu polymerase (Stratagene, CA). The presence of the desired mutation was verified by sequencing the PCR-amplified regions. All the primer sequences used in this study are available in Supplementary Table 1. The complementary RNA (cRNA) of all these channels and mutations was transcribed in vitro with the T3, T7, or SP6 polymerase mMessage mMachine kit (Invitrogen, Thermo Fisher Scientific, MO).
The whole-oocyte ionic currents were recorded with a GeneClamp 500B amplifier (Axon Instruments, CA) or iTEV90 amplifier (HEKA, Germany) and then sampled at 1 kHz and low-pass-filtered at 2 kHz. The Patchmaster software (HEKA, Germany) was used to acquire data. The Kir1.1 current was recorded with a high K^+ bath solution containing (in mM) 96 KCl, 4 NaCl, 1 CaCl2, 2 MgCl2, and 10 HEPES, pH 7.3–7.4. The HCN4 current was recorded in ND66 solution containing (in mM) 66 NaCl, 32 KCl, 1.8 CaCl2, 1 MgCl2, and 5 HEPES, pH 7.6. All the other potassium channels were recorded in ND96 solution. The currents of CaV1.2 channel were recorded in 40 mM Ba^2+ bath solution containing (in mM) 40 Ba(OH)2, 50 TEA-OH, 2 KOH, and 5 HEPES, adjusted to pH 7.4 with methanesulfonic acid. CP1 (DISODIUM 5-BROMO-2-[9-CHLORO-3-(SULFONATOOXY) NAPHTHO [1,2-B] THIEN-2-YL]-1H-INDOL-3-YL SULFATE, Sigma-Aldrich, MO) and Chromanol 293B (Sigma-Aldrich, MO) were dissolved in bath solutions. All the chemicals were purchased from Sigma-Aldrich. To measure the I–V relations of the Kir1.1 channel, the test voltage was set from −100 to +60 mV for 1 s with 20-mV increments. The test pulses were stepped from a holding potential of 0 mV and then stepped back to 0 mV. The HCN4 currents were recorded by a test pulse between −30 and −140 mV in 10-mV step from a holding potential of −30 mV. For all the other potassium channels and CaV1.2 channel, the holding potential was −80 or −100 mV, and the test pulse was applied with 10-mV increment, which was followed with a repolarization pulse at −40 mV before returning to the holding potential. The durations of test and the repolarization pulse vary for different channels to allow the activation and deactivation of the channel to reach their steady states.

hERG, sequence (Q12809 whole entry): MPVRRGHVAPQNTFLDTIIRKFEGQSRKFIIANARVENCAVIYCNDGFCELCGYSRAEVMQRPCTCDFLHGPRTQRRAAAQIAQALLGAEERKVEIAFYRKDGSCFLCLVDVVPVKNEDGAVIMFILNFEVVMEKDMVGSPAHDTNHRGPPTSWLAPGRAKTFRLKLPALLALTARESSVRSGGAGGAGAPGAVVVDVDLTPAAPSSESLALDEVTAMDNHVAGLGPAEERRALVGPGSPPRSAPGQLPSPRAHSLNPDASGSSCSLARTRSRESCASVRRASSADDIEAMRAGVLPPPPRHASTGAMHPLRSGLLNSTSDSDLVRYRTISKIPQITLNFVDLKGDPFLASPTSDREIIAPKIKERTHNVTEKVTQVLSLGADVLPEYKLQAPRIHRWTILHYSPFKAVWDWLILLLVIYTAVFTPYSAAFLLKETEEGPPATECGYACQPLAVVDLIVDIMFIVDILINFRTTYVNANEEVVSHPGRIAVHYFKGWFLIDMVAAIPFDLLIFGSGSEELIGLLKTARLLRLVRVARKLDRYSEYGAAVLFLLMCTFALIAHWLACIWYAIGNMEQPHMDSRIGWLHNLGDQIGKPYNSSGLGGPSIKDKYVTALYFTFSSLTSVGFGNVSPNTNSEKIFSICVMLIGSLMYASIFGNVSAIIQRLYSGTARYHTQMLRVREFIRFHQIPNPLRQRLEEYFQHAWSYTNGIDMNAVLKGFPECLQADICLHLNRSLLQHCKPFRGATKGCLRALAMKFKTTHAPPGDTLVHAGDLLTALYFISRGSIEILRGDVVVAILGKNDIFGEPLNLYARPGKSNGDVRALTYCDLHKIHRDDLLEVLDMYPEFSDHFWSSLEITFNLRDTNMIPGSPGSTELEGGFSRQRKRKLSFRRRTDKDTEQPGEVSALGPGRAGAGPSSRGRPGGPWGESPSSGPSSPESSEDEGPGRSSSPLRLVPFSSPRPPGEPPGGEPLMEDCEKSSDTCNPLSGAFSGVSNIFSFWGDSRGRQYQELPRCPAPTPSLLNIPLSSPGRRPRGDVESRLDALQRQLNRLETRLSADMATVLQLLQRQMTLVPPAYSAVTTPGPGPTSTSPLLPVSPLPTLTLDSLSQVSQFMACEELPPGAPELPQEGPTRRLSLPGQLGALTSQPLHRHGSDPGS

## O=S(=O)([O-])Oc1c(-c2sc3c(ccc4cccc(Cl)c43)c2OS(=O)(=O)[O-])[nH]c2ccc(Br)cc12.[Na+].[Na+] [CP1, DISODIUM 5-BROMO-2-[9-CHLORO-3-(SULFONATOOXY) NAPHTHO [1,2-B] THIEN-2-YL]-1H-INDOL-3-YL SULFATE]
  ΔV1/2 of G–V relations: 6.85 ± 1.81 mV
Voltage 0 mV
  G/Gmax Mean (Fig. 6e): 0.8601
Voltage 10 mV
  G/Gmax Mean (Fig. 6e): 0.9576
Voltage 20 mV
  G/Gmax Mean (Fig. 6e): 1.0000
Voltage 30 mV
  G/Gmax Mean (Fig. 6e): 0.9916
Voltage 40 mV
  G/Gmax Mean (Fig. 6e): 0.9932
Voltage 50 mV
  G/Gmax Mean (Fig. 6e): 0.9886
Voltage 60 mV
  G/Gmax Mean (Fig. 6e): 0.9837
Voltage -10 mV
  G/Gmax Mean (Fig. 6e): 0.6448
Voltage -20 mV
  G/Gmax Mean (Fig. 6e): 0.3564
Voltage -30 mV
  G/Gmax Mean (Fig. 6e): 0.1368
Voltage -40 mV
  G/Gmax Mean (Fig. 6e): 0.0404
Voltage -50 mV
  G/Gmax Mean (Fig. 6e): 0.0144
Voltage -60 mV
  G/Gmax Mean (Fig. 6e): 0.0098
Voltage -70 mV
  G/Gmax Mean (Fig. 6e): 0.0091
Voltage -80 mV
  G/Gmax Mean (Fig. 6e): 0.0089
Voltage -90 mV
  G/Gmax Mean (Fig. 6e): 0.0084
Voltage -100 mV
  G/Gmax Mean (Fig. 6e): 0.0080
Voltage -110 mV
  G/Gmax Mean (Fig. 6e): 0.0069
Voltage -120 mV
  G/Gmax Mean (Fig. 6e): 0.0065

Source: PMC7367283, “A PIP2 substitute mediates voltage sensor-pore coupling in KCNQ activation” (Communications Biology, 2020)
